Laboratory results published in ChEMBL document CHEMBL3991601, “The target landscape of clinical kinase drugs” (Science, 2017).
The source made the active and inactive calls.

Experiments:
[1] = biological target: Guanine nucleotide-binding protein G(i) subunit alpha-2 (Homo sapiens, UniProt P04899)
[2] = biological target: T1, DNA replication licensing factor MCM4 (Homo sapiens, UniProt P33991)
T1 sequence (P33991 whole entry): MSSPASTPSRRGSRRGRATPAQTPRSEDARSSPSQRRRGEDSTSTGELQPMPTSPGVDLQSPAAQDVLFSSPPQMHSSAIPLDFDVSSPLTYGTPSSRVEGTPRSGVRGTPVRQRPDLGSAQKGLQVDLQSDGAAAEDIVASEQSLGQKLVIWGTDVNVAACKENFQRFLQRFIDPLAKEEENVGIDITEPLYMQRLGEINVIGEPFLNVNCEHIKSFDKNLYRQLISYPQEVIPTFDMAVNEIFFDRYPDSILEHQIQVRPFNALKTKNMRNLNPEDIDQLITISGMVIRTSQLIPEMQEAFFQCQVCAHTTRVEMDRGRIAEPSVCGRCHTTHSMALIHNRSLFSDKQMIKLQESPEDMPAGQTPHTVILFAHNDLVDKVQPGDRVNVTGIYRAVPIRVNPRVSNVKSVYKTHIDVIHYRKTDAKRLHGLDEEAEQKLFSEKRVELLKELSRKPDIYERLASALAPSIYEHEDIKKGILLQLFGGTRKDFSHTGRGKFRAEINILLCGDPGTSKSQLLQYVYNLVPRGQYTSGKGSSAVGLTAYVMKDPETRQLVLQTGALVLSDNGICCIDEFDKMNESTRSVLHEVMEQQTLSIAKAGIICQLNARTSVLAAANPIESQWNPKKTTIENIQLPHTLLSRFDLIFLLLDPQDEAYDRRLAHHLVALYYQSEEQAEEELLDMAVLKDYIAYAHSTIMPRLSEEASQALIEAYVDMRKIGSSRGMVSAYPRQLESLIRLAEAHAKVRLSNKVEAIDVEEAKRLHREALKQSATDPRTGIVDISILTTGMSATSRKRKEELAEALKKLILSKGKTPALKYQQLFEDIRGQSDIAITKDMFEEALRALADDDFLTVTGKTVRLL

Ephrin type-A receptor 5 = Ephrin type-A receptor 5 (Homo sapiens, UniProt P54756)
Ephrin type-A receptor 5, sequence (P54756 whole entry): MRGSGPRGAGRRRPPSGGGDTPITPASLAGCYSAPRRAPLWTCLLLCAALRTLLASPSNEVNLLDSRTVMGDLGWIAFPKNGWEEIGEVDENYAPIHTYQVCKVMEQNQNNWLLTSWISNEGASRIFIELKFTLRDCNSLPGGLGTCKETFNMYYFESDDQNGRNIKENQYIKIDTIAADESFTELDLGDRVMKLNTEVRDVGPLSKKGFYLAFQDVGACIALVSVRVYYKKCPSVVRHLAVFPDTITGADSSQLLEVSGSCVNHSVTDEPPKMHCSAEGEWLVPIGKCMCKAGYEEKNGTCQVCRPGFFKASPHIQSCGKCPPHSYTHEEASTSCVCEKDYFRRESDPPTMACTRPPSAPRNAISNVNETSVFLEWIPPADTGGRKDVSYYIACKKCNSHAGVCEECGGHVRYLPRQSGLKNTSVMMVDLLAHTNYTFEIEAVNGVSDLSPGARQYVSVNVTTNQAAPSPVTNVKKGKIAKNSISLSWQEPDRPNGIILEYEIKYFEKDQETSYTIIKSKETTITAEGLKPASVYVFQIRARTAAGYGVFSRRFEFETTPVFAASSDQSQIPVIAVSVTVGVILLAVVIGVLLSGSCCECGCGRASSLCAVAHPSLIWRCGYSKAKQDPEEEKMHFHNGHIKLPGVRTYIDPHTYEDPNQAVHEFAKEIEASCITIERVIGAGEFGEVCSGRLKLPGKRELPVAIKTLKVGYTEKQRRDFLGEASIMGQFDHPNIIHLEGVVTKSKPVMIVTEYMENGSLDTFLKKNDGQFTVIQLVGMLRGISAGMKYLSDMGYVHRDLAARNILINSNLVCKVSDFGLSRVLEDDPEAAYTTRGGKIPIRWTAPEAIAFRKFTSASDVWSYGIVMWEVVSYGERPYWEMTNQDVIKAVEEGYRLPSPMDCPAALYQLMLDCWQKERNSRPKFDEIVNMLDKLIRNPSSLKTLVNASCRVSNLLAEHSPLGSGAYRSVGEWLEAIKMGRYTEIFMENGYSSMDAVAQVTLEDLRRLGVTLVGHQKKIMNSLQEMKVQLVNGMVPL

Heme oxygenase 2 = biological target: T2, Heme oxygenase 2 (Homo sapiens, UniProt P30519)
T2 sequence (P30519 whole entry): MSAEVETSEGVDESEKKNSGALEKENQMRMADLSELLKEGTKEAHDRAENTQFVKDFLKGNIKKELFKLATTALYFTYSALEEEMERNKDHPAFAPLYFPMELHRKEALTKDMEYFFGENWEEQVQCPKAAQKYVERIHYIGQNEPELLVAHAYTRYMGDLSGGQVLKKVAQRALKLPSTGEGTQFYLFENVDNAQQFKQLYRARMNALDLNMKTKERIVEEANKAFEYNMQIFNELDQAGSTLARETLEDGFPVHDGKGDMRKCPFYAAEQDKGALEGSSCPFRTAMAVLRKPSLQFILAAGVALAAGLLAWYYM

[3] = biological target: Serine/threonine-protein kinase MRCK alpha (Homo sapiens, UniProt Q5VT25)
Serine/threonine-protein kinase MRCK alpha, sequence (Q5VT25 whole entry): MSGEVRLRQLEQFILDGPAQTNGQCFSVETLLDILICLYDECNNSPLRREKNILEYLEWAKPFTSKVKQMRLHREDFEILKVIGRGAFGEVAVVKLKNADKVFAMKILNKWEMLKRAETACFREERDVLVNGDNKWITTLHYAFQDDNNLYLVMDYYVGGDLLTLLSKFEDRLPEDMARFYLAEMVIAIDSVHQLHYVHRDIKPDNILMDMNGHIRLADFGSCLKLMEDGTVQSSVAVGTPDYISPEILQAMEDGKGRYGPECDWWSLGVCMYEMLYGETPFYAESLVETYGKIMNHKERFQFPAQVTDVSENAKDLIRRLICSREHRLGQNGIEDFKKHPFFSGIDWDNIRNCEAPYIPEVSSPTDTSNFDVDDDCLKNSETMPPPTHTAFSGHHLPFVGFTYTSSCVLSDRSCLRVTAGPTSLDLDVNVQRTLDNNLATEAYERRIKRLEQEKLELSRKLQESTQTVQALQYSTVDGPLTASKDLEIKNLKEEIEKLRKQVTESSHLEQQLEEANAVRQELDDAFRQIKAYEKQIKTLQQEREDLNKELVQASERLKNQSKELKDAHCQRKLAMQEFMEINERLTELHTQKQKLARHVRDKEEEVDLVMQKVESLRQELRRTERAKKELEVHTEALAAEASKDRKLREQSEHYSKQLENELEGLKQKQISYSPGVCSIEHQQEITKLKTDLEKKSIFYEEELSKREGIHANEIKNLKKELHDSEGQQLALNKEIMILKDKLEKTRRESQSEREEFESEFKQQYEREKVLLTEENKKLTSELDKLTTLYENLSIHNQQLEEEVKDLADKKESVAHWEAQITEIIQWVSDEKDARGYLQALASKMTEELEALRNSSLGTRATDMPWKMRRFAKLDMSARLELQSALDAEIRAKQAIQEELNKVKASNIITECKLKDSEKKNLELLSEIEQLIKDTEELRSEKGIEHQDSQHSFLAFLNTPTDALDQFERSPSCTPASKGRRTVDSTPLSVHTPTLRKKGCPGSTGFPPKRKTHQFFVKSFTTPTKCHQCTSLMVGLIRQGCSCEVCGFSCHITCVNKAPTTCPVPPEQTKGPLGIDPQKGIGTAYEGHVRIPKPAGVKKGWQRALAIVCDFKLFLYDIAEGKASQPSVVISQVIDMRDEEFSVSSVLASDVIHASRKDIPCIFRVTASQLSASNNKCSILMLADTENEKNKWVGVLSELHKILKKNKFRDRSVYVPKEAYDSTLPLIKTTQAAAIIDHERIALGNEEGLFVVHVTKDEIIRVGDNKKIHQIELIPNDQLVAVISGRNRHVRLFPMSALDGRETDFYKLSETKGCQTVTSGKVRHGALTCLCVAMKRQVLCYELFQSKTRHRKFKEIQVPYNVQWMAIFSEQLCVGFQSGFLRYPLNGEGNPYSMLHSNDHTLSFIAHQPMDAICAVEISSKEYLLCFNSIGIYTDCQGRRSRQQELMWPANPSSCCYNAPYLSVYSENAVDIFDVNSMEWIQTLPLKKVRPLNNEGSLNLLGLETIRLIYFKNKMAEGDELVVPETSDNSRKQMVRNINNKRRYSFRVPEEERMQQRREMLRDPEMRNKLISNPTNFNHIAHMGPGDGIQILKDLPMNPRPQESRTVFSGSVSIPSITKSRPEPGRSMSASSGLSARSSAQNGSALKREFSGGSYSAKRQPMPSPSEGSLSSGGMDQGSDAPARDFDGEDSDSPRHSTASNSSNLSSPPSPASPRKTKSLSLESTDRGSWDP

[4] = biological target: Protein kinase C beta type (Homo sapiens, UniProt P05771)
Protein kinase C beta type, sequence (P05771 whole entry, the tested form may be a part): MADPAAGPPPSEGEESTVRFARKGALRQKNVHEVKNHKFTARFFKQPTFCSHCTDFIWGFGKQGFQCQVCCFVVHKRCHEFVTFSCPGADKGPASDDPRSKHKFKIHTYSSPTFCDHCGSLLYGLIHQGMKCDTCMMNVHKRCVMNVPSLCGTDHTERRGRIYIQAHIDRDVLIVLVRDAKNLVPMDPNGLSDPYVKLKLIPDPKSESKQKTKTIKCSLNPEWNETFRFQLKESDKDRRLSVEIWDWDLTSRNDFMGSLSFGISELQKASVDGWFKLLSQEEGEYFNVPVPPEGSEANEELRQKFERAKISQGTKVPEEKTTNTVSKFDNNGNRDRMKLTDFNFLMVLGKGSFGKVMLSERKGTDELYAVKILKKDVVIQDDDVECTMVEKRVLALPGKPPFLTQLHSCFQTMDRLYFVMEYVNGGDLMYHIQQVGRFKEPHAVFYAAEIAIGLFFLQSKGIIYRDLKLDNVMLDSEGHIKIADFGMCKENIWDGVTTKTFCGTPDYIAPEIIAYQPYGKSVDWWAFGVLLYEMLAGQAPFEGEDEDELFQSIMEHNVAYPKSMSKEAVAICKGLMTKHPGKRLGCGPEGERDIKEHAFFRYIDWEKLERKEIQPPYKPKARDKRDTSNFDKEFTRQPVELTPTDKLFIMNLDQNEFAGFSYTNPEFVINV

[5] = biological target: T3, AarF domain-containing protein kinase 1 (Homo sapiens, UniProt Q86TW2)
T3 sequence (Q86TW2 whole entry): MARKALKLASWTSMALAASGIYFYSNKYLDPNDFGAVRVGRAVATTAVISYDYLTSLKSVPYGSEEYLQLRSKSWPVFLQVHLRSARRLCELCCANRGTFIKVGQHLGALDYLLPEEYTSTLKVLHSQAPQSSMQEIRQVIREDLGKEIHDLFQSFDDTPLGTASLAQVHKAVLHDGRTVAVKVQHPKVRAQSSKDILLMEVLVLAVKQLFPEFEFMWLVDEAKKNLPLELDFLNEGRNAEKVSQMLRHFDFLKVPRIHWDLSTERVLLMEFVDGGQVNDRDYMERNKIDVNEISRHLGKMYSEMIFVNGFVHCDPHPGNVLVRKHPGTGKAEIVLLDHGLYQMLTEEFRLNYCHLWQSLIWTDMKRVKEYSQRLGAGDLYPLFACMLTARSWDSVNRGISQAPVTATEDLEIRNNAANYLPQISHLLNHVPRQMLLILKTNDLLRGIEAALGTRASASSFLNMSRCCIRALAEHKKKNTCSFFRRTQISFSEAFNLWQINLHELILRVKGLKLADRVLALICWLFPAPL

[6] = biological target: Casein kinase II subunit alpha' (Homo sapiens, UniProt P19784)
Casein kinase II subunit alpha', sequence (P19784 whole entry): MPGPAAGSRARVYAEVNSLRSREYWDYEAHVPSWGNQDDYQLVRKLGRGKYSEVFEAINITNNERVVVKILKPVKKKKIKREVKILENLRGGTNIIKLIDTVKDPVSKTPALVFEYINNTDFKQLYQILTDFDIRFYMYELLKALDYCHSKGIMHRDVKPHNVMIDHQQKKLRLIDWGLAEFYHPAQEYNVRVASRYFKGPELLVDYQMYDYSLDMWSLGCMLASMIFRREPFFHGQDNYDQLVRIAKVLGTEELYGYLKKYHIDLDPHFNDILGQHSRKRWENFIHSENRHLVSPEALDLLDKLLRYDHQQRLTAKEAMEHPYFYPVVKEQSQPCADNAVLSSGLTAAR

[7] = biological target: Receptor-interacting serine/threonine-protein kinase 3 (Homo sapiens, UniProt Q9Y572)
Receptor-interacting serine/threonine-protein kinase 3, sequence (Q9Y572 whole entry): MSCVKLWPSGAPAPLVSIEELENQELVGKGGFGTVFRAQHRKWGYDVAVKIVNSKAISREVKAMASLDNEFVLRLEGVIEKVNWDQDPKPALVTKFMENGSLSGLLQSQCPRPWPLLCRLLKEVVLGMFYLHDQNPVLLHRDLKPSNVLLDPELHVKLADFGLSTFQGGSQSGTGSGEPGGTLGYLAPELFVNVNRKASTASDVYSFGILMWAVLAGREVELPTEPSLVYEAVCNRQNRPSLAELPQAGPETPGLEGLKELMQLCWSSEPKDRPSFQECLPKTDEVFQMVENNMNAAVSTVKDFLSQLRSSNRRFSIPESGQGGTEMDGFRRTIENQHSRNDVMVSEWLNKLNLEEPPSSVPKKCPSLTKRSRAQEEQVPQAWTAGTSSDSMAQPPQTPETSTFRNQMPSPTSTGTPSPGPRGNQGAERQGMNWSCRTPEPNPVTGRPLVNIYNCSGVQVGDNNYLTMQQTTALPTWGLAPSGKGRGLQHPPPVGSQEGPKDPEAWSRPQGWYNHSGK

[8] = biological target: T4, Serine/threonine-protein kinase NLK (Homo sapiens, UniProt Q9UBE8)
T4 sequence (Q9UBE8 whole entry): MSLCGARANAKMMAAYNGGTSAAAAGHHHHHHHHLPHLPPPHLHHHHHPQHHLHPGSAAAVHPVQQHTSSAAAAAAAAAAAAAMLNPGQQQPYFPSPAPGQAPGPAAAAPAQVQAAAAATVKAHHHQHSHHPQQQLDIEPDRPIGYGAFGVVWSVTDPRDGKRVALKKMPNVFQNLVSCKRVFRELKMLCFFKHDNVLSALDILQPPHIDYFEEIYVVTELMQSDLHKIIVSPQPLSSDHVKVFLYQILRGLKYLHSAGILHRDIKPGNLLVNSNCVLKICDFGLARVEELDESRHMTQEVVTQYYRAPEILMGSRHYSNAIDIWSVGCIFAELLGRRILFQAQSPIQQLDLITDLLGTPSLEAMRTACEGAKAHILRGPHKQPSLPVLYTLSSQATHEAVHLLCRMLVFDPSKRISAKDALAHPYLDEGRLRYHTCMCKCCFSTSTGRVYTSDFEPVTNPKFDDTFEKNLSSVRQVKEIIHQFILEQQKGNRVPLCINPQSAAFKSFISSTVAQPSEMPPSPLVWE
Note: in the data inactive means no Kd found up to 30 µM.

Guanine nucleotide-binding protein G(i) subunit alpha-2, sequence (P04899 whole entry): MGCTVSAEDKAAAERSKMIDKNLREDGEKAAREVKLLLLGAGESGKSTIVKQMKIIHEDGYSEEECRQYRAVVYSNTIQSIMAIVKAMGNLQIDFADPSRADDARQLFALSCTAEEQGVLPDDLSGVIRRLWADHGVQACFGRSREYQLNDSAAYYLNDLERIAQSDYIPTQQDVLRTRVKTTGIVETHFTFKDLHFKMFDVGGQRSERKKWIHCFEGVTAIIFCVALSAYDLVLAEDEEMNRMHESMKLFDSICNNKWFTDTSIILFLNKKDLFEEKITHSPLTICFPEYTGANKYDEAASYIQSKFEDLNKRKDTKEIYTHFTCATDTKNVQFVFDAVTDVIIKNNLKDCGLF

Structure (SMILES) | Kd [1] | Kd [2] | Kd (Ephrin type-A receptor 5) | Kd (Heme oxygenase 2) | Kd [3] | Kd [4] | Kd [5] | Kd [6] | Kd [7] | Kd [8]
NC(=O)c1ccc(N(C(N)=O)c2c(F)cccc2F)nc1-c1ccc(F)cc1F [VX-702] | > 30 µM (inactive) | > 30 µM (inactive) | > 30 µM (inactive) | > 30 µM (inactive) | > 30 µM (inactive) | > 30 µM (inactive) | > 30 µM (inactive) | > 30 µM (inactive) | > 30 µM (inactive) | –
Cc1c(NC(=O)OC[C@@H]2COCCN2)cn2ncnc(Nc3ccc4c(cnn4Cc4cccc(F)c4)c3)c12 [AC-480] | > 30 µM (inactive) | > 30 µM (inactive) | > 30 µM (inactive) | > 30 µM (inactive) | > 30 µM (inactive) | > 30 µM (inactive) | > 30 µM (inactive) | > 30 µM (inactive) | > 30 µM (inactive) | > 30 µM (inactive)
Cn1cc(-c2[nH]c3cc(NC(=O)[C@H](N)C4CCCCC4)cc4c3c2C=NNC4=O)cn1 | > 30 µM (inactive) | > 30 µM (inactive) | > 30 µM (inactive) | > 30 µM (inactive) | > 30 µM (inactive) | > 30 µM (inactive) | 4.5 µM (active) | 14.8 µM (active) | > 30 µM (inactive) | > 30 µM (inactive)
Cc1cc(Nc2nc(N[C@@H](C)c3ncc(F)cn3)ncc2Cl)n[nH]1 [AZD-1480] | > 30 µM (inactive) | > 30 µM (inactive) | > 30 µM (inactive) | > 30 µM (inactive) | > 30 µM (inactive) | > 30 µM (inactive) | > 30 µM (inactive) | 3.96 µM (active) | > 30 µM (inactive) | > 30 µM (inactive)
C[C@]1(O)C[C@@H](c2nc(-c3ccc4ccc(-c5ccccc5)nc4c3)c3c(N)nccn32)C1 [LINSITINIB] | > 30 µM (inactive) | > 30 µM (inactive) | > 30 µM (inactive) | > 30 µM (inactive) | – | > 30 µM (inactive) | > 30 µM (inactive) | > 30 µM (inactive) | 6.05 µM (active) | > 30 µM (inactive)
NC[C@@](O)(c1ccc(Cl)cc1)c1ccc(-c2cn[nH]c2)cc1 [AT-13148] | > 30 µM (inactive) | > 30 µM (inactive) | – | > 30 µM (inactive) | > 30 µM (inactive) | > 30 µM (inactive) | > 30 µM (inactive) | > 30 µM (inactive) | > 30 µM (inactive) | > 30 µM (inactive)
Cn1c(=O)n(-c2ccc(C(C)(C)C#N)cc2)c2c3cc(-c4cnc5ccccc5c4)ccc3ncc21 [DACTOLISIB] | > 30 µM (inactive) | > 30 µM (inactive) | > 30 µM (inactive) | > 30 µM (inactive) | > 30 µM (inactive) | > 30 µM (inactive) | > 30 µM (inactive) | > 30 µM (inactive) | > 30 µM (inactive) | > 30 µM (inactive)
COc1cc(F)c(F)c(Nc2ccc(I)cc2F)c1NS(=O)(=O)C1(C[C@H](O)CO)CC1 [REFAMETINIB] | > 30 µM (inactive) | > 30 µM (inactive) | > 30 µM (inactive) | > 30 µM (inactive) | > 30 µM (inactive) | > 30 µM (inactive) | 0.778 µM | > 30 µM (inactive) | > 30 µM (inactive) | > 30 µM (inactive)
CN1CCN(c2nc(C3=C(c4c[nH]c5ccccc45)C(=O)NC3=O)c3ccccc3n2)CC1 [SOTRASTAURIN] | > 30 µM (inactive) | > 30 µM (inactive) | > 30 µM (inactive) | > 30 µM (inactive) | > 30 µM (inactive) | – | > 30 µM (inactive) | > 30 µM (inactive) | > 30 µM (inactive) | > 30 µM (inactive)
COc1cccc(Nc2ncnn3ccc(CN4CC[C@@H](N)[C@H](O)C4)c23)c1 [BMS-690514] | > 30 µM (inactive) | > 30 µM (inactive) | > 30 µM (inactive) | > 30 µM (inactive) | > 30 µM (inactive) | > 30 µM (inactive) | > 30 µM (inactive) | – | > 30 µM (inactive) | > 30 µM (inactive)
CC(C)CC(=O)Nc1[nH]nc2c1CN(C(=O)C1CCN(C)CC1)C2(C)C [PHA-793887] | > 30 µM (inactive) | > 30 µM (inactive) | > 30 µM (inactive) | – | > 30 µM (inactive) | > 30 µM (inactive) | > 30 µM (inactive) | > 30 µM (inactive) | > 30 µM (inactive) | –
CC1(COc2ccc3c(c2)ncn3-c2ccc3cccc(N4CCC(N)CC4)c3n2)COC1 [CRENOLANIB] | > 30 µM (inactive) | > 30 µM (inactive) | > 30 µM (inactive) | > 30 µM (inactive) | > 30 µM (inactive) | > 30 µM (inactive) | > 30 µM (inactive) | > 30 µM (inactive) | > 30 µM (inactive) | > 30 µM (inactive)
O[C@H]1CC[C@H](Nc2ncc3nc(Nc4c(F)cc(F)cc4F)n([C@H]4CCOC4)c3n2)CC1 [TANZISERTIB] | > 30 µM (inactive) | > 30 µM (inactive) | > 30 µM (inactive) | > 30 µM (inactive) | > 30 µM (inactive) | > 30 µM (inactive) | > 30 µM (inactive) | > 30 µM (inactive) | > 30 µM (inactive) | > 30 µM (inactive)
N#CCNC(=O)c1ccc(-c2ccnc(Nc3ccc(N4CCOCC4)cc3)n2)cc1 [MOMELOTINIB] | > 30 µM (inactive) | > 30 µM (inactive) | > 30 µM (inactive) | > 30 µM (inactive) | – | > 30 µM (inactive) | 0.217 µM | 0.302 µM (active) | > 30 µM (inactive) | > 30 µM (inactive)
O=S(=O)(c1cccc2cnccc12)N1CCCNCC1 [FASUDIL] | > 30 µM (inactive) | > 30 µM (inactive) | > 30 µM (inactive) | > 30 µM (inactive) | – | > 30 µM (inactive) | > 30 µM (inactive) | > 30 µM (inactive) | > 30 µM (inactive) | > 30 µM (inactive)
C=CCN(/C=C1/C(=O)O[C@H](COC)[C@@]2(C)C1=C(O)C(=O)C1=C2[C@H](OC(C)=O)C[C@]2(C)C(=O)CC[C@@H]12)CC=C [SONOLISIB] | > 30 µM (inactive) | – | > 30 µM (inactive) | > 30 µM (inactive) | > 30 µM (inactive) | > 30 µM (inactive) | > 30 µM (inactive) | > 30 µM (inactive) | > 30 µM (inactive) | > 30 µM (inactive)
